Test results taken from publication PMC4911353, “Pharmacologic Inhibition of Host Phosphodiesterase-4 Improves Isoniazid-Mediated Clearance of Mycobacterium tuberculosis” (Frontiers in Immunology, 2016).

How the values were obtained:
[1] = tested on: lung granulomas; experiment: Histology and morphometric measurement of lung granulomas in Mtb-infected mice; type: in vivo
Description: Formalin-fixed lung tissues of Mtb-infected mice were paraffin-embedded, cut into […] sections, and stained with hematoxylin and eosin (H&E) or acid fast staining by Ziehl–Neelsen (ZN) method to visualize host cells and Mtb, respectively (IDEXX-RADIL Laboratories Inc., MO, USA) as described in Ref. ([11]). Stained sections were photographed in a Nikon Microphot-FX photomicrographic system and analyzed with NIS-Elements F3.0 software (Nikon Instruments Inc., NY, USA). Lung granuloma size was morphometrically measured using PathScan Enabler IV scanner (Meyer Instruments, Houston, TX, USA) and SigmaScan Pro software (Systat Software, Inc., CA, USA). Histopathologic analysis and morphometry were performed by an experienced pathologist blinded to the sample identity.

[2] = tested on: Mycobacterium tuberculosis CDC1551; type: in vivo; settings: B6D2F1 mice, 50 mg/kg daily
[3] = tested on: Mtb; settings: mouse pulmonary TB model; cited from earlier work

NNC(=O)c1ccncc1 [INH, isoniazid]
Lesion area (granuloma size) versus untreated mice ([1]; 28 days postinfection): significant differences | Granuloma size versus untreated group ([1]; 112 days postinfection): significant reduction | Change in lung CFUs from 84 to 112 days postinfection [2]: no significant decline

COc1ccc(C2CNC(=O)C2)cc1OC1CCCC1 (centres unmarked) [rolipram]
Impact on antibiotic-mediated bacillary clearance [3]: no impact

COc1ccc([C@]2(C#N)CC[C@@H](C(=O)O)CC2)cc1OC1CCCC1 [cilomilast]
Impact on antibiotic-mediated bacillary clearance [3]: no impact
